The test system of one test is VLDL. Kind of test: Interaction of peptide with VLDL, displacement of apo E from VLDL. As to the method: It was determined that in MEF 1 cells with induced LDL receptors, LDL internalization was enhanced three, five and seven times by Ac-mE-18A-NH2, Ac-hE-18A-NH2, and Ac-hE(R)-18A-NH2 respectively. All three peptides increased degradation of LDL by 100 percent. […] However, only Ac-hE-18A-NH2-associated VLDL enhanced the uptake of VLDL six fold and degradation three fold compared to VLDL alone in spite of the absence of apoE. The LDL binding to fibroblasts in the presence of these peptides was not saturable, however, over the LDL concentration range studied.

Test [1] has as its system MEF 1 cells with induced LDL receptors. Kind of test: Uptake and degradation of human LDL by cells (LDL internalization, LDL degradation). The format is cell-based. The source says: (§1) To test the hypothesis that a minimal arginine-rich Apo E receptor binding domain (141-150) was sufficient to enhance low density lipoprotein (LDL) and very low density lipoprotein (VLDL) uptake and clearance when covalently linked to a class A amphipathic helix, a peptide was synthesized in which the receptor binding domain of human Apo E, LRKLRKRLLR (SEQ ID NO:4) (hApo E[141-150] also referred to as “hE”), was linked to 18A, a well characterized high affinity lipid-associating peptide (DWLKAFYDKVAEKLKEAF (SEQ ID NO:5), also referred to as “18A”) to produce a peptide denoted as hApo E[141-150]-18A (also referred to as “hE-18A”) (see U.S. Pat. No. 6,506,880, which is hereby incorporated by reference in its entirety for its teaching of specific Apo E mimetics and their uses). Also synthesized was an end protected analog of hE-18A, denoted Ac-hE18A-NH2. […] The effect of the dual character peptides on the uptake and degradation of human LDL/VLDL by cells was then determined.
(§2) It was determined that in MEF 1 cells with induced LDL receptors, LDL internalization was enhanced three, five and seven times by Ac-mE-18A-NH2, Ac-hE-18A-NH2, and Ac-hE(R)-18A-NH2 respectively. […]

The subject of a further test is cells. Kind of test: Uptake and degradation of peptide-associated VLDL by cells. The format is cell-based. The following applies: peptide-associated VLDL compared to VLDL alone, in the absence of apoE.
Excerpt: as §1, §2

The next test has as its system plasma cholesterol. Kind of test: Plasma cholesterol reduction in apoE null mice after a single dose. To be noted: single dose in saline vehicle, at both 50 and 100 μg/mouse. Type of test: in vivo. Here is the method: The study was carried out in apoE null mice (n=4 animals/group). The time points show the plasma cholesterol levels at the indicated times following a single dose administration. A single dose was administered using a saline vehicle.

Ahx = NCCCCCC(=O)O

Take “Ac-LRKLRKRLLRDWLKAFYDKVAEKLKEAF-NH2 [Ac-hE-18A-NH2]”: in the test on VLDL, the “displacement of apo E from VLDL” value is on record as “interacted with VLDL to cause a displacement of apo E from VLDL”. Further, in test [1], the LDL internalization enhanced result is given as “five” and the “increased degradation of LDL” value came to 100%. Moreover, in the test with cells, the “enhanced degradation of VLDL” value was “three” and the “enhanced uptake of VLDL” value is reported as “six”.

As for “Ac-D-W-L-K-A-F-Y-D-K-V-A-E-K-L-K-E-A-F-NH2 (Ac-DWLKAFYDKVAEKLKEAF-NH2) [Ac-18A-NH2, control peptide; 18A is the lipid-associating peptide …, reference compound]”, the “displacement of apo E from VLDL” value with VLDL is on record as “interacted with VLDL to cause a displacement of apo E from VLDL”.

Turning to “Ac-Aha-LRRLRRRLLR-DWLKAFYDKVAEKLKEAF-NH2 ({Ac-Ahx}-LRRLRRRLLRDWLKAFYDKVAEKLKEAF-NH2; SMILES CC(=O)NCCCCCC(=O)N[C@@H](CC(C)C)C(=O)N[C@@H](CCCNC(=N)N)C(=O)N[C@@H](CCCNC(=N)N)C(=O)N[C@@H](CC(C)C)C(=O)N[C@@H](CCCNC(=N)N)C(=O)N[C@@H](CCCNC(=N)N)C(=O)N[C@@H](CCCNC(=N)N)C(=O)N[C@@H](CC(C)C)C(=O)N[C@@H](CC(C)C)C(=O)N[C@@H](CCCNC(=N)N)C(=O)N[C@@H](CC(=O)O)C(=O)N[C@@H](Cc1c[nH]c2ccccc12)C(=O)N[C@@H](CC(C)C)C(=O)N[C@@H](CCCCN)C(=O)N[C@@H](C)C(=O)N[C@@H](Cc1ccccc1)C(=O)N[C@@H](Cc1ccc(O)cc1)C(=O)N[C@@H](CC(=O)O)C(=O)N[C@@H](CCCCN)C(=O)N[C@H](C(=O)N[C@@H](C)C(=O)N[C@@H](CCC(=O)O)C(=O)N[C@@H](CCCCN)C(=O)N[C@@H](CC(C)C)C(=O)N[C@@H](CCCCN)C(=O)N[C@@H](CCC(=O)O)C(=O)N[C@@H](C)C(=O)N[C@@H](Cc1ccccc1)C(N)=O)C(C)C) [AC-Aha-[R]hE18A-NH2]”, the reducing plasma cholesterol entry in the test on plasma cholesterol was “highly effective”.
